Laboratory results: US20210128534A1, “DRUG DELIVERY SYSTEMS” (YISSUM RESEARCH DEVELOPMENT COMPANY OF THE HEBREW …, priority 2018, published 2021)
Values belong to the molecule of their own block, whether it stands above or below them.

Columns and labels:
[1] = Dexamethasone palmitate solubility in FDA approved oils for ophthalmic use; type: physicochemical
Procedure: 8.1 Solubility in FDA Approved Oils for Ophthalmic Use
Dexamethasone palmitate solubility was assessed in mineral oil, castor oil and MCT.

[2] = Reconstitution stability of lyophilized tacrolimus NCs in isotonic aqueous solution; type: physicochemical; conditions: room temperature
[3] = cited from earlier work

Molecule: CCCCCCCCCCCCCCCC(=O)OCC(=O)[C@@]1(O)[C@H](C)C[C@H]2[C@@H]3CCC4=CC(=O)C=C[C@]4(C)[C@@]3(F)[C@@H](O)C[C@@]21C [Dexamethasone, Dexamethasone palmitate]
Concentration ([1]; solubility in Castor oil): 33600 µg/mL
Concentration ([1]; solubility in MCT): 46600 µg/mL
Concentration ([1]; solubility in Mineral oil): 1300 µg/mL

time the active remained stable in aqueous formulation [2]: at least 2 weeks
Molecule: C=CC[C@@H]1/C=C(\C)C[C@H](C)C[C@H](OC)[C@H]2O[C@@](O)(C(=O)C(=O)N3CCCC[C@H]3C(=O)O[C@H](/C(C)=C/[C@@H]3CC[C@@H](O)[C@H](OC)C3)[C@H](C)[C@@H](O)CC1=O)[C@H](C)C[C@@H]2OC [Tacrolimus]

Molecule: Cyclosporine A [CsA]
skin levels reported to be active for psoriasis ([3]; equivalent to 1 ng/mg): 1000 ng/g
CsA concentration associated with good clinical response ([3]; human patients with psoriasis, 12-hour trough): higher than 100 ng/ml
